Laboratory results published in paper PMC9095880, “AIMP2-DX2 provides therapeutic interface to control KRAS-driven tumorigenesis” (Nature Communications, 2022).

Molecular target: T1, AIMP2 (Homo sapiens, UniProt Q13155)
T1 construct: purified AIMP2, in vitro pull-down
T1 sequence (Q13155 1-320): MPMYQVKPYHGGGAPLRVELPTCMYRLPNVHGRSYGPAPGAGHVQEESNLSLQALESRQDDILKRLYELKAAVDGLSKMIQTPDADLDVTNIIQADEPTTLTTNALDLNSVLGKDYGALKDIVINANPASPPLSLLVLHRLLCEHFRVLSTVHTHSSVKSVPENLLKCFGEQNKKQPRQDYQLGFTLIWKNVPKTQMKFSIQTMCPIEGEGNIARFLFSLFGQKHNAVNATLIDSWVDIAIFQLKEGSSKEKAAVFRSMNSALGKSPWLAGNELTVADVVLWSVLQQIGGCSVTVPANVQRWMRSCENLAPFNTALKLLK
Assay: in vitro pull-down with purified AIMP2
Settings: no binding to cellular AIMP2 in immunoprecipitation

COc1ccc(-c2ccc(CN(C(=O)c3cnc4ccccc4n3)c3ccccc3F)s2)cc1C [BC-DXI-32982]
in vitro pull-down with purified AIMP2: DXI showed binding to the purified AIMP2 in an in vitro pull-down assay
